Data as given in patent US6310090A, “Process and product for enhancing immune response in companion animals using a combination of antioxidants” (priority 2000, dated 2001).

Experiments:
[1] = system: PHA (nonspecific antigen); experiment: delayed type hypersensitivity response (skin induration) to PHA, lutein supplementation; assay type: in vivo, dog (Beagle)
Method: (§1) Skin induration response was assessed in all dogs on weeks 0, 6, and 12. Dogs were injected intradermally in the flank area with saline (8.5 g/L; control), an attenuated polyvalent vaccine containing canine distemper virus, canine adenovirus type-2, canine parainfluenza virus and parvovirus (Vanguard 5, Smithkline Beacham, West Chester, Pa.; specific antigen), and PHA (0.5 g/L; nonspecific antigen). The doses of vaccine and PHA used were previously determined to provide optimal skin response in Beagle dogs of similar age. The injection site was clipped and wiped with 70% ethyl alcohol. The injection volume was 100 μL. Skin induration was measured at 0, 24, 48 and 72 h post-injection with the aid of a pressure-sensitive digital micrometer (Mitsutoyo, Tokyo, Japan) and response was expressed as a percentage of skin thickness measured at 0 h.

[2] = system: polyvalent vaccine (specific antigen); experiment: delayed type hypersensitivity response to vaccine / vaccine recognition, lutein supplementation; assay type: in vivo, dog (Beagle)
Method: as §1

[3] = system: peripheral blood mononuclear cells (PBMC); experiment: mitogen-induced PBMC proliferation, lutein supplementation; assay type: cell-based, dog (Beagle)
Method: Blood collected on weeks 0, 2, 4, 8 and 12 were used to assess mitogen-induced lymphocyte proliferation by peripheral blood mononuclear cells (PBMC). Whole blood culture was used in order to mimic in vivo conditions. Mitogens used were phytohemagglutinin (PHA), concanavalin A (Con A) and pokeweed mitogen (PWM). Whole blood was thoroughly mixed and then diluted 1:12 with RPMI-1640 containing 25 mM of Hepes, penicillin (100 U/mL) and streptomycin (100 μg/mL) (Sigma, St. Louis, Mo.). […] Triplicate 150 μL volumes were pipetted into 96-well round bottom plates and 50 μl of the appropriate mitogens added. The final concentrations of the mitogens in culture were 2 and 10 μg/mL for PHA, 1 and 5 μg/mL for Con A and 0.5 and 2.5 μg/mL for PWM. The two mitogen concentrations gave maximum (the higher mitogen concentration) and suboptimal (lower mitogen concentration) proliferative responses in preliminary studies using blood from similar animals. The mixture was incubated for 72 h at 37° C. in a humidified incubator under a 5% CO2 atmosphere. Four hours prior to the termination of the incubation period, 20 μL of [^3 H]-thymidine (1 [μCi/well) were added. Cells were harvested onto fiberglass filters and radioactivity was counted by liquid scintillation. Proliferation response of PBMC was expressed as stimulation index (cpm of stimulated cultures/cpm of unstimulated cultures).

[4] = system: CD4+ T-helper cells; experiment: lymphocyte subsets by flow cytometry, lutein supplementation; assay type: cell-based, dog (Beagle); conditions: 5 and 10 mg lutein, week 12
Method: (§3) Fifty six female Beagle dogs (17 to 18 months old; average body weight 11.4±0.4 kg) were randomly assigned to be supplemented daily with 0, 5, 10 or 20 mg lutein for 17 weeks. The lutein contained 76.66% lutein and 5.23% zeaxanthin. The lutein supplement was resuspended in soybean oil to the appropriate concentration and 1 mL administered perorally at 0800 h daily. Food (200 g/dog/d) was offered immediately after the lutein supplementation. […] All dogs were housed in 2×2 m pens (2 dogs/pen) in a temperature (20 to 22° C.) and light (14 h light) controlled facility. Body weight was recorded at weeks 0, 6, and 12.
(§4) Blood was collected by jugular venipuncture into heparinized evacuated tubes on weeks 0, 2, 4, 8 and 12 and aliquots used for HPLC analysis and for assessing immune responses.
(§5) Blood leukocytes were separated using Histopaque-1119 (Sigma, St. Louis, Mo.). Cells were washed three times with phosphate-buffered saline (PBS, pH 7.4) and contaminating erythrocytes were lysed in NH4 CI (8.4 g/L). Lymphocyte subsets were determined by flow cytometry (FACScan, Becton Dickinson, San Jose, Calif.). […]
(§6) Appropriate negative controls were included to correct for background fluorescence. Data were expressed as the percentage of positive-staining cells corrected for cells stained nonspecifically with the secondary antibody.

[5] = system: CD5+ total T cells; experiment: as above; assay type: cell-based, dog (Beagle); conditions: weeks 4 and 8, dogs fed lutein
Method: as §3, §4, §5, §6

[6] = system: MHC class II expressing lymphocytes; experiment: as above; assay type: cell-based, dog (Beagle); conditions: 20 mg lutein, week 8 and 12
Method: as §3, §4, §5, §6

[7] = system: CD21+ B cells; experiment: as above; assay type: cell-based, dog (Beagle); conditions: dietary lutein
Method: as §3, §4, §5, §6

[8] = system: IL-2; experiment: IL-2 production by PHA-stimulated PBMC in whole blood cultures, lutein supplementation; assay type: cell-based, dog (canine)
Method: Whole blood was diluted 1:2 with RPMI-1640 supplemented with Hepes and antibiotics (described earlier) and 400 μL of diluted blood were pipetted into 48-well plates (Costar, Cambridge, Mass.). Cells were stimulated with PHA (400 μL of a 5 μg/mL solution) for 48 hours at […] in a 5% CO2 atmosphere. The plates were centrifuged at 200×g for 10 minutes and the supernatant was frozen at -80° C. The IL-2 content of the culture supernatant was determined in triplicate by ELISA (Intergen, Purchase, N.Y.). The polyclonal anti-human IL-2 cross-reacted with canine IL-2 and recombinant human IL-2 was used as the standard.

[9] = system: IgG; experiment: IgG by single radial immunodiffusion, lutein supplementation; assay type: in vivo, dog (canine)
Method: (§2) Serum collected on weeks 0, 2, 4, 8 and 12 were analyzed for IgG and IgM concentrations by single radial immunodiffusion (SRID). In addition, all dogs were vaccinated with the polyvalent vaccine (Vanguard 5, Smithkline Beacham, West Chester, Pa.) on week 13 and again on week 15 to study the possible anamnestic effect of dietary lutein. Blood was collected weekly from week 13 through week 17. Goat antiserum to canine IgG (10%, whole molecule) or IgM (7.5%, μ chain specific) (ICN, Aurora, Ohio) was mixed with melted agarose (10 g/L in PBS; Sigma Chem. Co., St. Louis, Mo.) and the mixture solidified in SRID plates. Duplicate 5 μL volumes of serum or IgG (0, 2.88, 5.75, 11.5 and 23.0 mg/ml) or IgM (0, 0.25, 0.5, 1.0 and 2.0 mg/ml) standard were loaded into the wells. After incubating for 24 hours at room temperature in a humidified chamber, ring diameters were measured using a SRID reader (Transidyne General Corp., Ann Arbor, Minn.).

[10] = system: IgM; experiment: IgM by single radial immunodiffusion, lutein supplementation; assay type: in vivo, dog (canine); conditions: after revaccination on week 15
Method: as §2

[11] = system: plasma lipid peroxidation (malondialdehyde); experiment: plasma lipid peroxidation (TBARS) assay, lutein supplementation; assay type: in vivo, dog (Beagle)
Method: Plasma lipid peroxidation activity was determined by measuring malondialdehyde (MDA) production. The standard used was 1,1,3,3-tetramethoxypropane JMP) (Sigma Chem. Co., St. Louis, Mo.). Duplicate 500 μL plasma samples were pipetted into 15 ml, glass tubes and 3 mL of 10 g/L phosphoric acid and 1 ml of 6 g/L TBA solution were added. The mixture was boiled in a water bath for 45 minutes. Tubes were allowed to cool and the TBA-MDA complex was extracted with 4 ml of n-butanol. The butanol layer was separated by centrifugation at 1,000×g for 10 minutes and absorbance was measured on at 532 nm (Beckman, Fullerton, Calif.). The TBARS activity was expressed in nmole MDA/L plasma.

[12] = system: immune system; experiment: summary of the results from each of the studies (Table 1); assay type: in vivo, dog
[13] = system: canine thyroid adenocarcinoma cells
Method: Fifty six female Beagle dogs (17 to 18 months old; average body weight 11.4±0.4 kg) were randomly assigned to be supplemented daily with 0, 5, 10 or 20 mg lutein for 17 weeks. The lutein contained 76.66% lutein and 5.23% zeaxanthin. The lutein supplement was resuspended in soybean oil to the appropriate concentration and 1 mL administered perorally at 0800 h daily. Food (200 g/dog/d) was offered immediately after the lutein supplementation. The basal diet met or exceeded the requirements for all essential nutrients (NRC 1985). All dogs were housed in 2×2 m pens (2 dogs/pen) in a temperature (20 to 22° C.) and light (14 h light) controlled facility. Body weight was recorded at weeks 0, 6, and 12.
as §4
Canine thyroid adenocarcinoma cells were used as target cells in assessing NK cell cytotoxic activity. […] Target cells were cultured in a T75 flask with 20 mL minimum essential medium (MEM; Sigma Chem. Co., St. Louis, Mo.) supplemented with 10% fetal calf serum (FC S), 100 U/mL of penicillin and 100 μg/mL of streptomycin. […] Optical density was measured at 570 nm using a microplate reader. The percentage of NK cell-specific lysis was calculated as follows: […]

[14] = system: CD8+ T-cytotoxic/suppressor cells; conditions: week 12
Method: as §3, §4, §5, §6

[15] = system: mouse splenocytes; conditions: dietary lutein; cited from earlier work
[16] = averaged across all treatments and all periods

## CC1=C[C@H](O)CC(C)(C)[C@H]1/C=C/C(C)=C/C=C/C(C)=C/C=C/C=C(C)/C=C/C=C(C)/C=C/C1=C(C)C[C@@H](O)CC1(C)C [lutein]
[1]; week 6, 48 and 72 h
  DTH response to PHA, treatment difference: no significant treatment difference
[1]; week 6, 24 h post-injection
  DTH response to PHA: dose-related DTH response
[1]; week 12, 20 mg lutein
  DTH response to PHA vs unsupplemented dogs: significantly higher
[1]; week 12, 24, 48 and 72 h
  DTH response to PHA: general dose-dependent increase
[2]; FIG. 2, addition of lutein to the diet
  improvement of vaccine recognition: ≤ 32%
[2]; week 6, 48 and 72 h post-injection
  DTH response to vaccine: dose-related
[2]; week 6, 24 h
  DTH response to vaccine: not significant
[2]; week 12
  DTH response to vaccine: no significant dietary effect
[3]; 10 mg lutein, week 8
  PWM-stimulated PBMC proliferative response: higher proliferative response
[3]; 10 mg lutein, weeks 8 and 12, 5 μg/mL Con A
  Con A-stimulated PBMC proliferation: higher PBMC proliferation
[3]; 20 mg lutein, week 8 and 12, both concentrations of PWM
  PWM-stimulated PBMC proliferation vs unsupplemented controls: significantly higher PBMC proliferation
[3]; 20 mg lutein, weeks 8 (10 pg/mL PHA) and 12 (2 and 10 μg/mL PHA), P<0.01
  PHA-stimulated PBMC proliferative response vs unsupplemented dogs: enhanced
[3]; 20 mg lutein, weeks 8 and 12, both concentrations of Con A
  Con A-stimulated PBMC proliferation: higher PBMC proliferation
[3]; 5 and 10 mg lutein, week 8, 10 μg/ml PHA
  PHA-stimulated PBMC proliferation: higher PBMC proliferation
[3]; no mitogen
  spontaneous proliferation by unstimulated PBMC: did not significantly influence
[3]; weeks 0 and 4
  PHA-stimulated PBMC response: no significant effect
  PWM-stimulated PBMC proliferation, treatment difference: no significant treatment difference
[4]
  % CD4+ cells: higher
[5]
  percentages of CD5+ cells vs unsupplemented controls: generally had higher percentages
[6]
  % MHC class II cell populations vs unsupplemented dogs: elevated
[7]
  CD21+ B cell population: did not significantly influence
[8]; averaged throughout the study, all treatments
  concentrations of IL-2 in culture medium: 15.7 ± 0.4 ng/mL
[8]; throughout the experimental period
  production of IL-2 by PHA-stimulated PBMC: did not differ significantly
[9]; 5 mg lutein, week 16, after revaccination on week 15, P<0.05
  plasma IgG: higher
[9]; 20 mg lutein, week 17, after revaccination on week 15
  plasma IgG: higher
[10]
  concentration of plasma IgM: not changed
[11]; averaged across all treatments and periods
  plasma TBARS activity: 95.8±0.1 nmol MDA/L
[11]; lutein supplementation
  effect on plasma TBARS activity: did not significantly affect
[12]; Table 1
  Optimize vaccine recognition by the dog: .check mark.
[12]; Table 1, Lutein column
  Optimize immune cell activity (B-cells): .check mark.
[16]
  plasma retinol concentration: 3.63 ± 0.14 µmol/L
  plasma α-tocopherol concentration: 37 ± 2 µmol/L
dog, in vivo
  plasma lutein+zeaxanthin vs unsupplemented animals: significantly higher
Lutein supplementation
  influence on plasma retinol and α-tocopherol: did not influence
[13]
  NK cell cytotoxic activity: did not significantly influence
[13]; averaged across all treatments and sampling periods, E:T 10:1
  specific lysis of target cells by PBMC: 49.1±1.1%
[14]
  CD8+ population: not influenced by the diet
[15]
  lymphocyte proliferation in mouse splenocytes: enhance lymphocyte proliferation
